# Reference: publication PMC5218480 (PLoS ONE, 2017)
# System: MV-4-11 cells
# Test: Gene expression microarray analysis (Affymetrix PrimeView) and GSEA
# Format: cell-based, human
# Design: RFU PODN (11730768_x_at) / Fold change /veh PODN (11730768_x_at) / RFU LINC00158 (11744669_a_at) / Fold change /veh LINC00158 (11744669_a_at) / RFU DUSP10 (11751237_a_at) / Fold change /veh DUSP10 (11751237_a_at) / RFU ID3 (11757404_x_at) / Fold change /veh ID3 (11757404_x_at) / RFU PLEKHG5 (11737974_s_at) / Fold change /veh PLEKHG5 (11737974_s_at) / RFU LRRC4B (11730491_at) / Fold change /veh LRRC4B (11730491_at) / RFU GIMAP4 (11747438_a_at) / Fold change /veh GIMAP4 (11747438_a_at) / RFU KRT8 (11758183_x_at) / Fold change /veh KRT8 (11758183_x_at) / RFU CNN1 (11734310_a_at) / Fold change /veh CNN1 (11734310_a_at) / RFU VPS37D (11726825_at) / Fold change /veh VPS37D (11726825_at) / RFU C10orf10 (11716522_x_at) / Fold change /veh C10orf10 (11716522_x_at) / RFU KIR2DL2 /// KIR2DL4 /// KIR2DL5A /// KIR2DL5B /// KIR2DS1 /// KIR2DS2 /// KIR2DS3 /// KIR2DS4 /// KIR3DL3 /// KIR3DL3 /// KIR3DS1 (11738374_at) / Fold change /veh KIR2DL2 /// KIR2DL4 /// KIR2DL5A /// KIR2DL5B /// KIR2DS1 /// KIR2DS2 /// KIR2DS3 /// KIR2DS4 /// KIR3DL3 /// KIR3DL3 /// KIR3DS1 (11738374_at) / RFU C1QL1 (11718748_at) / Fold change /veh C1QL1 (11718748_at) / RFU TMPRSS4 (11747572_a_at) / Fold change /veh TMPRSS4 (11747572_a_at) / RFU HAMP (11756126_x_at) / Fold change /veh HAMP (11756126_x_at) / RFU RNFT2 (11725882_a_at) / Fold change /veh RNFT2 (11725882_a_at) / RFU NR4A2 (11747474_a_at) / Fold change /veh NR4A2 (11747474_a_at) / RFU ABCC12 (11746883_a_at) / Fold change /veh ABCC12 (11746883_a_at) / RFU TMEM136 (11760407_x_at) / Fold change /veh TMEM136 (11760407_x_at) / RFU CLDN22 /// WWC2 (11732394_at) / Fold change /veh CLDN22 /// WWC2 (11732394_at) / RFU HLA-DPB1 (11760878_x_at) / Fold change /veh HLA-DPB1 (11760878_x_at) / RFU SPINT1 (11716480_a_at) / Fold change /veh SPINT1 (11716480_a_at) / RFU GAP43 (11754022_s_at) / Fold change /veh GAP43 (11754022_s_at) / RFU A4GNT (11735810_at) / Fold change /veh A4GNT (11735810_at) / RFU PRB3 (11715151_x_at) / Fold change /veh PRB3 (11715151_x_at) / RFU TUBB4B (11761932_at) / Fold change /veh TUBB4B (11761932_at) / RFU CAPN14 (11732068_a_at) / Fold change /veh CAPN14 (11732068_a_at) / RFU TMCC2 (11721928_a_at) / Fold change /veh TMCC2 (11721928_a_at) / RFU IRGQ (11745062_a_at) / Fold change /veh IRGQ (11745062_a_at) / RFU FAM174B (11720279_a_at) / Fold change /veh FAM174B (11720279_a_at) / RFU TMPRSS4 (11748680_a_at) / Fold change /veh TMPRSS4 (11748680_a_at) / RFU FAM212B (11763350_a_at) / Fold change /veh FAM212B (11763350_a_at) / RFU PLEKHG5 (11743358_a_at) / Fold change /veh PLEKHG5 (11743358_a_at) / RFU ZSCAN30 (11745921_a_at) / Fold change /veh ZSCAN30 (11745921_a_at) / RFU CMKLR1 (11741424_a_at) / Fold change /veh CMKLR1 (11741424_a_at) / RFU LOC101060620 /// MAPK8IP1 (11723275_at) / Fold change /veh LOC101060620 /// MAPK8IP1 (11723275_at) / RFU SPTSSB (11747773_x_at) / Fold change /veh SPTSSB (11747773_x_at) / RFU PRSS12 (11739890_at) / Fold change /veh PRSS12 (11739890_at) / RFU BIN1 (11741810_x_at) / Fold change /veh BIN1 (11741810_x_at) / RFU WNT11 (11732464_a_at) / Fold change /veh WNT11 (11732464_a_at) / RFU C10orf10 (11716521_a_at) / Fold change /veh C10orf10 (11716521_a_at) / RFU C5orf56 (11738089_at) / Fold change /veh C5orf56 (11738089_at) / RFU CYB561 (11721691_x_at) / Fold change /veh CYB561 (11721691_x_at) / RFU ANKRD19P (11752326_a_at) / Fold change /veh ANKRD19P (11752326_a_at) / RFU OR2T12 /// OR2T33 /// OR2T8 (11738714_s_at) / Fold change /veh OR2T12 /// OR2T33 /// OR2T8 (11738714_s_at) / RFU VCAN (11748164_a_at) / Fold change /veh VCAN (11748164_a_at) / RFU JSRP1 (11732532_at) / Fold change /veh JSRP1 (11732532_at) / RFU KRTAP10-11 (11738290_x_at) / Fold change /veh KRTAP10-11 (11738290_x_at) / RFU MYO3A (11730013_a_at) / Fold change /veh MYO3A (11730013_a_at) / RFU EBF3 (11725865_a_at) / Fold change /veh EBF3 (11725865_a_at) / RFU CAMK2N1 (11719241_x_at) / Fold change /veh CAMK2N1 (11719241_x_at) / RFU C5orf56 (11738088_a_at) / Fold change /veh C5orf56 (11738088_a_at) / RFU OLFML3 (11715873_a_at) / Fold change /veh OLFML3 (11715873_a_at) / RFU LOC100653217 /// NTM (11731650_a_at) / Fold change /veh LOC100653217 /// NTM (11731650_a_at) / RFU MAPK11 (11762145_a_at) / Fold change /veh MAPK11 (11762145_a_at) / RFU FIZ1 (11724087_x_at) / Fold change /veh FIZ1 (11724087_x_at) / RFU OASL (11726364_x_at) / Fold change /veh OASL (11726364_x_at) / RFU SOX15 (11748057_x_at) / Fold change /veh SOX15 (11748057_x_at) / RFU CD79A (11719716_a_at) / Fold change /veh CD79A (11719716_a_at) / RFU HIST1H1D (11736915_at) / Fold change /veh HIST1H1D (11736915_at) / RFU CASKIN2 (11723855_a_at) / Fold change /veh CASKIN2 (11723855_a_at) / RFU LOC730098 (11760151_x_at) / Fold change /veh LOC730098 (11760151_x_at) / RFU OR4N2 (11742367_at) / Fold change /veh OR4N2 (11742367_at) / RFU PRRT2 (11749266_a_at) / Fold change /veh PRRT2 (11749266_a_at) / RFU SNX32 (11753110_a_at) / Fold change /veh SNX32 (11753110_a_at) / RFU CDHR5 (11726645_a_at) / Fold change /veh CDHR5 (11726645_a_at) / RFU RCAN1 (11760418_a_at) / Fold change /veh RCAN1 (11760418_a_at) / RFU FAM167A (11723789_a_at) / Fold change /veh FAM167A (11723789_a_at) / RFU FAM26E (11764081_at) / Fold change /veh FAM26E (11764081_at) / RFU ISYNA1 (11749810_s_at) / Fold change /veh ISYNA1 (11749810_s_at) / RFU ACY1 (11761880_at) / Fold change /veh ACY1 (11761880_at) / RFU 11764098_at / Fold change /veh 11764098_at / RFU SAMD14 (11745864_x_at) / Fold change /veh SAMD14 (11745864_x_at) / RFU NPB (11741838_a_at) / Fold change /veh NPB (11741838_a_at) / RFU TMPRSS6 (11731388_a_at) / Fold change /veh TMPRSS6 (11731388_a_at) / RFU KRTAP10-2 (11738614_at) / Fold change /veh KRTAP10-2 (11738614_at) / RFU ARHGAP8 /// PRR5-ARHGAP8 (11727945_x_at) / Fold change /veh ARHGAP8 /// PRR5-ARHGAP8 (11727945_x_at) / RFU KRTAP5-7 /// NADSYN1 (11734609_at) / Fold change /veh KRTAP5-7 /// NADSYN1 (11734609_at) / RFU RASL12 (11751679_a_at) / Fold change /veh RASL12 (11751679_a_at) / RFU CDKN2B (11736163_a_at) / Fold change /veh CDKN2B (11736163_a_at) / RFU PRF1 (11729649_at) / Fold change /veh PRF1 (11729649_at) / RFU, ZNF638 /// ZNF638-IT1 / Fold change vs veh, ZNF638 /// ZNF638-IT1 / RFU, PANK3 / Fold change vs veh, PANK3 / RFU, SH3YL1 / Fold change vs veh, SH3YL1 / RFU, ZEB2 / Fold change vs veh, ZEB2 / RFU, NRIP1 / Fold change vs veh, NRIP1 / RFU, PTTG1IP / Fold change vs veh, PTTG1IP / RFU, CAPN2 / Fold change vs veh, CAPN2 / RFU, MED14 / Fold change vs veh, MED14 / RFU, SNORA58 / Fold change vs veh, SNORA58 / RFU, C1orf63 / Fold change vs veh, C1orf63 / RFU, LRRFIP1 / Fold change vs veh, LRRFIP1 / RFU, NDUFAF7 / Fold change vs veh, NDUFAF7 / RFU, SLC12A2 / Fold change vs veh, SLC12A2 / RFU, IBTK / Fold change vs veh, IBTK / RFU, ESF1 / Fold change vs veh, ESF1 / Fold change vs veh, TMEM50B / RFU, TAOK1 / Fold change vs veh, TAOK1 / RFU, ACBD3 / Fold change vs veh, ACBD3 / RFU, TMA16 / Fold change vs veh, TMA16 / RFU, RWDD3 / Fold change vs veh, RWDD3 / RFU, BCAT1 / Fold change vs veh, BCAT1 / RFU, EDEM3 / Fold change vs veh, EDEM3 / RFU, TMEM33 / Fold change vs veh, TMEM33 / RFU, WDR75 / Fold change vs veh, WDR75 / RFU, AHCTF1 / Fold change vs veh, AHCTF1 / RFU, TFRC / Fold change vs veh, TFRC / RFU, ZDHHC17 / Fold change vs veh, ZDHHC17 / RFU, NOM1 / Fold change vs veh, NOM1 / RFU, ARL8B / Fold change vs veh, ARL8B / RFU, ZBTB11 / Fold change vs veh, ZBTB11 / RFU, TAMM41 / Fold change vs veh, TAMM41 / RFU, KIAA1704 /// LOC100996395 / Fold change vs veh, KIAA1704 /// LOC100996395 / RFU, ING1 / Fold change vs veh, ING1 / RFU, TRMT61B / Fold change vs veh, TRMT61B / RFU, FUBP3 / Fold change vs veh, FUBP3 / RFU, TP53 / Fold change vs veh, TP53 / RFU, TNKS2 / Fold change vs veh, TNKS2 / RFU, ZFP14 / Fold change vs veh, ZFP14 / RFU, ACTR2 / Fold change vs veh, ACTR2 / RFU, PPP3R1 / Fold change vs veh, PPP3R1 / RFU, PIK3R1 / Fold change vs veh, PIK3R1 / RFU, HNRNPA1 / Fold change vs veh, HNRNPA1 / RFU, RNF170 / Fold change vs veh, RNF170 / RFU, ZNF28 / Fold change vs veh, ZNF28 / RFU, RNGTT / Fold change vs veh, RNGTT / RFU, OGT / Fold change vs veh, OGT / RFU, BRD1 / Fold change vs veh, BRD1 / RFU, MARS / Fold change vs veh, MARS / RFU, ZNF655 / Fold change vs veh, ZNF655 / RFU, FAHD1 / Fold change vs veh, FAHD1 / RFU, BDP1 / Fold change vs veh, BDP1 / RFU, LRRCC1 / Fold change vs veh, LRRCC1 / RFU, ARID1A / Fold change vs veh, ARID1A / RFU, ZNF146 / Fold change vs veh, ZNF146 / RFU, ZNF330 / Fold change vs veh, ZNF330 / RFU, GPN3 / Fold change vs veh, GPN3 / RFU, C9orf123 / Fold change vs veh, C9orf123 / RFU, N4BP2L2 / Fold change vs veh, N4BP2L2 / RFU, ARFIP1 / Fold change vs veh, ARFIP1 / RFU, FAM179B / Fold change vs veh, FAM179B / RFU, BCL10 / Fold change vs veh, BCL10 / RFU, UHRF1BP1L / Fold change vs veh, UHRF1BP1L / RFU, BET1 / Fold change vs veh, BET1 / RFU, CNOT2 / Fold change vs veh, CNOT2 / RFU, ZNF268 / Fold change vs veh, ZNF268 / Fold change vs veh, ZNF507 / RFU, DGCR2 / Fold change vs veh, DGCR2 / RFU, WDSUB1 / Fold change vs veh, WDSUB1 / Fold change vs veh, HSP90B1 /// MIR3652 / RFU, ADSS / Fold change vs veh, ADSS / RFU, GK / Fold change vs veh, GK / RFU, ZNF148 / Fold change vs veh, ZNF148 / RFU, TAF9 / Fold change vs veh, TAF9 / RFU, SLC1A5 / Fold change vs veh, SLC1A5 / RFU, SLMO2 / Fold change vs veh, SLMO2 / RFU, ABCC4 / Fold change vs veh, ABCC4 / RFU, LOC101060439 /// RAP1B / Fold change vs veh, LOC101060439 /// RAP1B / RFU, RFX7 / Fold change vs veh, RFX7 / RFU, GTPBP10 / Fold change vs veh, GTPBP10 / RFU, CNEP1R1 / Fold change vs veh, CNEP1R1 / RFU, BIVM-ERCC5 /// ERCC5 / Fold change vs veh, BIVM-ERCC5 /// ERCC5 / RFU, ILF3 / Fold change vs veh, ILF3 / RFU 11762660_at / Fold change /veh 11762660_at / RFU VCAN (11757783_s_at) / Fold change /veh VCAN (11757783_s_at) / RFU DDX43 (11728927_at) / Fold change /veh DDX43 (11728927_at) / RFU KRT8 (11758188_x_at) / Fold change /veh KRT8 (11758188_x_at) / RFU NKD1 (11759106_at) / Fold change /veh NKD1 (11759106_at) / RFU SRD5A1 (11742802_a_at) / Fold change /veh SRD5A1 (11742802_a_at) / RFU TPSAB1 /// TPSB2 (11721975_s_at) / Fold change /veh TPSAB1 /// TPSB2 (11721975_s_at) / RFU GSTM3 (11746129_a_at) / Fold change /veh GSTM3 (11746129_a_at) / RFU IL23R (11737362_x_at) / Fold change /veh IL23R (11737362_x_at) / RFU TMEM51 (11727254_a_at) / Fold change /veh TMEM51 (11727254_a_at) / RFU PIWIL2 (11732686_x_at) / Fold change /veh PIWIL2 (11732686_x_at) / RFU ORM1 (11744905_x_at) / Fold change /veh ORM1 (11744905_x_at) / RFU CCDC152 (11743942_at) / Fold change /veh CCDC152 (11743942_at) / RFU ECM1 (11717891_a_at) / Fold change /veh ECM1 (11717891_a_at) / RFU IL23R (11748794_a_at) / Fold change /veh IL23R (11748794_a_at) / RFU TNFAIP8L3 (11732012_x_at) / Fold change /veh TNFAIP8L3 (11732012_x_at) / RFU MBOAT4 (11741988_at) / Fold change /veh MBOAT4 (11741988_at) / RFU 11764193_at / Fold change /veh 11764193_at / RFU TMEM53 (11763286_at) / Fold change /veh TMEM53 (11763286_at) / RFU MAGEB2 (11727129_at) / Fold change /veh MAGEB2 (11727129_at) / RFU TMEM200A (11744735_a_at) / Fold change /veh TMEM200A (11744735_a_at) / RFU CCDC152 (11751479_a_at) / Fold change /veh CCDC152 (11751479_a_at) / RFU FAM211A (11726209_a_at) / Fold change /veh FAM211A (11726209_a_at) / RFU RGS16 (11746705_a_at) / Fold change /veh RGS16 (11746705_a_at) / RFU VCAN (11755009_s_at) / Fold change /veh VCAN (11755009_s_at) / RFU RHOB (11743442_s_at) / Fold change /veh RHOB (11743442_s_at) / RFU RGS16 (11720943_a_at) / Fold change /veh RGS16 (11720943_a_at) / RFU RGS16 (11720944_at) / Fold change /veh RGS16 (11720944_at) / RFU, VPS4B / Fold change vs veh, VPS4B / RFU, CREB1 / Fold change vs veh, CREB1 / RFU, DNAJC13 / Fold change vs veh, DNAJC13 / RFU, GNAQ / Fold change vs veh, GNAQ / RFU, CDK5R1 / Fold change vs veh, CDK5R1 / RFU, ZRANB3 / Fold change vs veh, ZRANB3 / RFU, CUL4A / Fold change vs veh, CUL4A / RFU, CCNY / Fold change vs veh, CCNY / RFU, UFL1 / Fold change vs veh, UFL1 / RFU, COG3 / Fold change vs veh, COG3 / RFU, DIAPH2 / Fold change vs veh, DIAPH2 / RFU, SKA2 / Fold change vs veh, SKA2 / RFU, AFF3 / Fold change vs veh, AFF3 / RFU, LMF1 / Fold change vs veh, LMF1 / RFU, IPO11 / Fold change vs veh, IPO11 / RFU, DFFB / Fold change vs veh, DFFB / RFU, FOXP1 / Fold change vs veh, FOXP1 / RFU, CARD8 / Fold change vs veh, CARD8 / RFU, STRN3 / Fold change vs veh, STRN3 / RFU, ADK / Fold change vs veh, ADK / RFU, RASSF2 / Fold change vs veh, RASSF2 / RFU, WIPF1 / Fold change vs veh, WIPF1 / RFU, LARP1B / Fold change vs veh, LARP1B / RFU, RASA1 / Fold change vs veh, RASA1 / RFU, RB1 / Fold change vs veh, RB1 / RFU, PPFIA1 / Fold change vs veh, PPFIA1 / RFU, MAT2A / Fold change vs veh, MAT2A / RFU, CCT5 / Fold change vs veh, CCT5 / RFU, WDR92 / Fold change vs veh, WDR92 / RFU, CUX1 / Fold change vs veh, CUX1 / RFU, TTC7A / Fold change vs veh, TTC7A / RFU, TMEM135 / Fold change vs veh, TMEM135 / RFU, DEPTOR / Fold change vs veh, DEPTOR / RFU, CPM / Fold change vs veh, CPM / RFU, DNAJB6 / Fold change vs veh, DNAJB6 / RFU, CACNA2D3 / Fold change vs veh, CACNA2D3 / RFU, DTX4 / Fold change vs veh, DTX4 / RFU, TFCP2 / Fold change vs veh, TFCP2 / RFU, GMCL1 /// GMCL1P1 / Fold change vs veh, GMCL1 /// GMCL1P1 / RFU, AEBP2 / Fold change vs veh, AEBP2 / RFU, SNHG1 /// SNORD22 /// SNORD25 /// SNORD26 /// SNORD27 /// SNORD28 /// SNORD29 /// SNORD31 / Fold change vs veh, SNHG1 /// SNORD22 /// SNORD25 /// SNORD26 /// SNORD27 /// SNORD28 /// SNORD29 /// SNORD31 / Fold change (Aza/veh), C12orf56 (ProbeSet 11735607_a_at) / Fold change (ACY-1035/veh), C12orf56 (ProbeSet 11735607_a_at) / Fold change (Aza/veh), FGFR1OP (ProbeSet 11751329_s_at) / Fold change (ACY-1035/veh), FGFR1OP (ProbeSet 11751329_s_at) / Fold change (Aza/veh), VPS36 (ProbeSet 11739960_a_at) / Fold change (ACY-1035/veh), VPS36 (ProbeSet 11739960_a_at) / RFU SYPL1 (11715823_x_at) / Fold change /veh SYPL1 (11715823_x_at) / RFU IGFBP7 (11715501_s_at) / Fold change /veh IGFBP7 (11715501_s_at) / RFU REEP3 (11722064_at) / Fold change /veh REEP3 (11722064_at) / RFU IGLL1 (11728026_x_at) / Fold change /veh IGLL1 (11728026_x_at): dose or concentration left out as unconfirmed
# Details: ProbeSet 11723475_a_at; LIST B
smiles,measurement,value
Nc1ncn([C@@H]2O[C@H](CO)[C@@H](O)[C@H]2O)c(=O)n1 [azacitidine],"RFU, TRMT61B",139.59 RFU
